{
  "source": "patent US20210052600A1",
  "about": "“THERAPEUTIC AGENTS FOR STRESS URINARY INCONTINENCE AND INCOTINENCE OF FECES” (Takeda Pharmaceutical Company Limited, priority 2017, published 2021)",
  "key": {"[1]": {"assay": "Comparison of plasma concentrations for urethra-closing effect and anti-obesity effect (analysis of Examples 1-9 and literature)", "conditions": "free form; extrapolated, 3.3-fold less than rat 670 ng/mL"}, "[2]": {"assay": "Plasma concentrations in rats 30 minutes after oral administration (effective plasma concentration at LPP10)", "conditions": "rat; measured concentration multiplied by ratio between dosage used and LPP10", "procedure": "(§1) Ten female rats of SD strain were anesthetized with isoflurane. In order to secure the same conditions as those for drug-administered animals, their spinal cord was transected at the T8-T9 (the eighth thoracic cord—the ninth thoracic cord) level. Then, a cannula for blood collection was inserted into the femoral artery. […] These drugs were each dissolved in 0.5% MC. Thirty minutes after oral administration, up to 250 μL of blood was collected from the femoral artery or the tail vein and treated with heparin. The collected blood was immediately cooled on ice and centrifuged under conditions involving 3,000 rpm and 4° C. for 10 minutes to obtain plasma. The plasma samples were stored under conditions of −80° C. until drug quantification.\n(§2) After thawing of the plasma samples, the internal standard compound was added thereto, and the mixture was then centrifuged under conditions of 5,250 rpm. The drug contained in 60 μL of the supernatant was quantified by LC-MS/MS."}, "[3]": {"conditions": "rat, in vivo, 2.5 mg/kg", "procedure": "as §1, §2"}},
  "data": [
    {"smiles": "CC(C)N(C)c1cnc2c(n1)OCCNC2.Cl", "note": "[Compound A, N-methyl-N-(1-methylethyl)-6,7,8,9-tetrahydropyrazino[2,3-f][1,4]oxazeine-3-amine]", "values": [
      {"measurement": "average plasma concentration in a day (steady state) giving a body weight lowering effect greater than placebo by 3.8% in humans", "setting": "[1]", "value": 203, "unit": "ng/mL"},
      {"measurement": "plasma concentration at LPP10", "setting": "[2]", "value": 61, "unit": "ng/mL"},
      {"measurement": "plasma concentration 30 minutes after oral administration", "setting": "[3]", "value": "94.8 ± 24.1", "unit": "ng/mL"}
    ]}
  ]
}
